± gives the expanded uncertainty stated by the source.
What was measured:
[1] = refractive index (Na D-line) (dimensionless); settings: 101.33 kPa, Liquid, Standard Abbe refractometry
[2] = 101.33 kPa, Liquid; for speed of sound: Sing-around technique in a fixed-path interferometer; for mass density: Vibrating tube method
[3] = refractive index (Na D-line) (dimensionless); xn = mol fraction of the nth substance listed; settings: 298.15 K, 100 kPa, Liquid, Standard Abbe refractometry
[4] = xn = mol fraction of the nth substance listed; settings: 298.15 K, 100 kPa, Liquid; for speed of sound: Frequency=3 MHz, Sing-around technique in a fixed-path interferometer; for mass density: Vibrating tube method

CCCCN [1-butanamine]
refractive index ([1]; 293.15 K): 1.4006 ± 0.0042
refractive index ([1]; 298.15 K): 1.39786 ± 0.0042
refractive index ([1]; 303.15 K): 1.395 ± 0.0042
speed of sound ([2]; 293.15 K): 1268.3 ± 1.4 m/s
mass density ([2]; 293.15 K): 737.048 ± 1.8 kg/m3
speed of sound ([2]; 298.15 K): 1246 ± 1.4 m/s
mass density ([2]; 298.15 K): 732.231 ± 1.8 kg/m3
speed of sound ([2]; 303.15 K): 1224.6 ± 1.4 m/s
mass density ([2]; 303.15 K): 727.452 ± 1.8 kg/m3

CCCCCCN [1-hexanamine]
refractive index ([1]; 298.15 K): 1.41577 ± 0.0043
speed of sound ([2]; 293.15 K): 1324 ± 1.1 m/s
mass density ([2]; 293.15 K): 764.423 ± 1.8 kg/m3
speed of sound ([2]; 298.15 K): 1303.6 ± 1.1 m/s
mass density ([2]; 298.15 K): 760.073 ± 1.8 kg/m3
speed of sound ([2]; 303.15 K): 1283.6 ± 1.1 m/s
mass density ([2]; 303.15 K): 755.848 ± 1.8 kg/m3

CCCCCCN [1-hexanamine] + CN(C)C=O
refractive index ([3]; x2 = 0.0506): 1.41613 ± 0.0043
refractive index ([3]; x2 = 0.1725): 1.41707 ± 0.0043
refractive index ([3]; x2 = 0.2548): 1.41779 ± 0.0043
refractive index ([3]; x2 = 0.3476): 1.4187 ± 0.0043
refractive index ([3]; x2 = 0.4461): 1.4198 ± 0.0043
refractive index ([3]; x2 = 0.55): 1.42107 ± 0.0043
refractive index ([3]; x2 = 0.6558): 1.42257 ± 0.0043
refractive index ([3]; x2 = 0.7573): 1.42411 ± 0.0043
refractive index ([3]; x2 = 0.8492): 1.42564 ± 0.0043
refractive index ([3]; x2 = 0.953): 1.42747 ± 0.0043
speed of sound ([4]; x2 = 0.0506): 1307.1 ± 1.1 m/s
speed of sound ([4]; x2 = 0.0992): 1310.8 ± 1.1 m/s
speed of sound ([4]; x2 = 0.1725): 1316.7 ± 1.1 m/s
speed of sound ([4]; x2 = 0.2548): 1324.2 ± 1.2 m/s
speed of sound ([4]; x2 = 0.3476): 1333.7 ± 1.2 m/s
speed of sound ([4]; x2 = 0.4461): 1345.5 ± 1.2 m/s
speed of sound ([4]; x2 = 0.55): 1360.1 ± 1.2 m/s
speed of sound ([4]; x2 = 0.6022): 1368.3 ± 1.2 m/s
speed of sound ([4]; x2 = 0.7056): 1387.1 ± 1.2 m/s
speed of sound ([4]; x2 = 0.7996): 1406.8 ± 1.2 m/s
speed of sound ([4]; x2 = 0.8492): 1418.4 ± 1.2 m/s
speed of sound ([4]; x2 = 0.8982): 1430.4 ± 1.2 m/s
speed of sound ([4]; x2 = 0.953): 1444.7 ± 1.2 m/s
mass density ([4]; x2 = 0.0506): 765.582 ± 1.9 kg/m3
mass density ([4]; x2 = 0.0992): 771.096 ± 1.9 kg/m3
mass density ([4]; x2 = 0.1725): 779.897 ± 1.9 kg/m3
mass density ([4]; x2 = 0.2548): 790.546 ± 1.9 kg/m3
mass density ([4]; x2 = 0.3476): 803.611 ± 1.9 kg/m3
mass density ([4]; x2 = 0.4461): 818.861 ± 2 kg/m3
mass density ([4]; x2 = 0.55): 836.751 ± 2 kg/m3
mass density ([4]; x2 = 0.6022): 846.551 ± 2.1 kg/m3
mass density ([4]; x2 = 0.7056): 867.688 ± 2.1 kg/m3
mass density ([4]; x2 = 0.7996): 889.217 ± 2.2 kg/m3
mass density ([4]; x2 = 0.8492): 901.602 ± 2.2 kg/m3
mass density ([4]; x2 = 0.8982): 914.549 ± 2.2 kg/m3
mass density ([4]; x2 = 0.953): 929.99 ± 2.3 kg/m3

CCCCNCCCC [dibutylamine]
refractive index ([1]; 293.15 K): 1.41724 ± 0.0043
refractive index ([1]; 298.15 K): 1.41488 ± 0.0043
refractive index ([1]; 303.15 K): 1.41253 ± 0.0043
speed of sound ([2]; 293.15 K): 1261.1 ± 1.1 m/s
mass density ([2]; 293.15 K): 759.695 ± 1.8 kg/m3
speed of sound ([2]; 298.15 K): 1241.5 ± 1.1 m/s
mass density ([2]; 298.15 K): 755.525 ± 1.8 kg/m3
speed of sound ([2]; 303.15 K): 1222.5 ± 1.1 m/s
mass density ([2]; 303.15 K): 751.458 ± 1.8 kg/m3

CCCCNCCCC [dibutylamine] + CN(C)C=O
refractive index ([3]; x2 = 0.1038): 1.41553 ± 0.0043
refractive index ([3]; x2 = 0.2076): 1.41628 ± 0.0043
refractive index ([3]; x2 = 0.3608): 1.41761 ± 0.0043
refractive index ([3]; x2 = 0.4897): 1.419 ± 0.0043
refractive index ([3]; x2 = 0.5933): 1.42034 ± 0.0043
refractive index ([3]; x2 = 0.688): 1.42178 ± 0.0043
refractive index ([3]; x2 = 0.7709): 1.42323 ± 0.0043
refractive index ([3]; x2 = 0.8398): 1.42459 ± 0.0043
refractive index ([3]; x2 = 0.8989): 1.42587 ± 0.0043
refractive index ([3]; x2 = 0.9497): 1.42706 ± 0.0043
refractive index ([3]; x2 = 0.9738): 1.42765 ± 0.0043
speed of sound ([4]; x2 = 0.0642): 1246.4 ± 1.1 m/s
speed of sound ([4]; x2 = 0.1134): 1250.5 ± 1.1 m/s
speed of sound ([4]; x2 = 0.1647): 1255 ± 1.1 m/s
speed of sound ([4]; x2 = 0.2121): 1259.5 ± 1.1 m/s
speed of sound ([4]; x2 = 0.2734): 1266.1 ± 1.1 m/s
speed of sound ([4]; x2 = 0.3213): 1271.6 ± 1.2 m/s
speed of sound ([4]; x2 = 0.4114): 1283.5 ± 1.2 m/s
speed of sound ([4]; x2 = 0.4526): 1289.7 ± 1.2 m/s
speed of sound ([4]; x2 = 0.5072): 1298.6 ± 1.2 m/s
speed of sound ([4]; x2 = 0.5574): 1307.9 ± 1.2 m/s
speed of sound ([4]; x2 = 0.5996): 1316.3 ± 1.2 m/s
speed of sound ([4]; x2 = 0.6514): 1328.1 ± 1.2 m/s
speed of sound ([4]; x2 = 0.6869): 1336.8 ± 1.2 m/s
speed of sound ([4]; x2 = 0.7361): 1350.4 ± 1.2 m/s
speed of sound ([4]; x2 = 0.7904): 1367.5 ± 1.3 m/s
speed of sound ([4]; x2 = 0.8418): 1385.9 ± 1.3 m/s
speed of sound ([4]; x2 = 0.8921): 1406.1 ± 1.3 m/s
speed of sound ([4]; x2 = 0.9471): 1431 ± 1.4 m/s
mass density ([4]; x2 = 0.0642): 761.171 ± 1.8 kg/m3
mass density ([4]; x2 = 0.1134): 765.782 ± 1.9 kg/m3
mass density ([4]; x2 = 0.1647): 770.882 ± 1.9 kg/m3
mass density ([4]; x2 = 0.2121): 775.872 ± 1.9 kg/m3
mass density ([4]; x2 = 0.2734): 782.835 ± 1.9 kg/m3
mass density ([4]; x2 = 0.3213): 788.624 ± 1.9 kg/m3
mass density ([4]; x2 = 0.4114): 800.702 ± 1.9 kg/m3
mass density ([4]; x2 = 0.4526): 806.766 ± 2 kg/m3
mass density ([4]; x2 = 0.5072): 815.344 ± 2 kg/m3
mass density ([4]; x2 = 0.5574): 823.977 ± 2 kg/m3
mass density ([4]; x2 = 0.5996): 831.688 ± 2 kg/m3
mass density ([4]; x2 = 0.6514): 842.013 ± 2.1 kg/m3
mass density ([4]; x2 = 0.6869): 849.571 ± 2.1 kg/m3
mass density ([4]; x2 = 0.7361): 860.924 ± 2.1 kg/m3
mass density ([4]; x2 = 0.7904): 874.714 ± 2.1 kg/m3
mass density ([4]; x2 = 0.8418): 889.103 ± 2.2 kg/m3
mass density ([4]; x2 = 0.8921): 904.666 ± 2.2 kg/m3
mass density ([4]; x2 = 0.9471): 923.65 ± 2.3 kg/m3

CN(C)C=O [dimethylformamide]
refractive index ([1]; 293.15 K): 1.43055 ± 0.0043
refractive index ([1]; 298.15 K): 1.42828 ± 0.0043
refractive index ([1]; 303.15 K): 1.42603 ± 0.0043
speed of sound ([2]; 293.15 K): 1476.8 ± 1.2 m/s
mass density ([2]; 293.15 K): 948.881 ± 2.3 kg/m3
speed of sound ([2]; 298.15 K): 1457.2 ± 1.2 m/s
mass density ([2]; 298.15 K): 944.081 ± 2.3 kg/m3
speed of sound ([2]; 303.15 K): 1438.2 ± 1.2 m/s
mass density ([2]; 303.15 K): 939.361 ± 2.3 kg/m3

CCCNCCC [dipropylamine]
refractive index ([1]; 293.15 K): 1.40432 ± 0.0042
refractive index ([1]; 298.15 K): 1.40139 ± 0.0042
refractive index ([1]; 303.15 K): 1.39883 ± 0.0042
speed of sound ([2]; 293.15 K): 1209.4 ± 1.4 m/s
mass density ([2]; 293.15 K): 738.194 ± 1.8 kg/m3
speed of sound ([2]; 298.15 K): 1187.7 ± 1.4 m/s
mass density ([2]; 298.15 K): 733.618 ± 1.8 kg/m3
speed of sound ([2]; 303.15 K): 1167.2 ± 1.4 m/s
mass density ([2]; 303.15 K): 729.098 ± 1.8 kg/m3

— the NIST ThermoML archive (doi:10.1021/acs.jced.5b00802)
